# According to PubChem BioAssay (NCI):
#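 Step 1: Grow cells in 96-well plates. Step 2: Expose to compound for 48 hours at 5 concentrations. Step 3: Interpolate endpoints linearly; if unreached, use highest concentration. Here, GI50 denotes the concentration required for 50% inhibition of growth. TGI marks complete inhibition of growth.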
# Legend:
# Assay in all cases: inhibition of tumour cell growth, NCI panel, 48 h
# HS 578T breast = tested on: HS 578T breast
# M14 melanoma = tested on: M14 melanoma
# OVCAR-8 ovarian = tested on: OVCAR-8 ovarian
# NCI-H460 lung = tested on: NCI-H460 lung
# SK-OV-3 ovarian = tested on: SK-OV-3 ovarian
# SF-539 CNS = tested on: SF-539 CNS
# CCRF-CEM leukemia = tested on: CCRF-CEM leukemia
# SN12C renal = tested on: SN12C renal
# NCI-H226 lung = tested on: NCI-H226 lung
# EKVX NSCLC = tested on: EKVX NSCLC
# PC-3 prostate = tested on: PC-3 prostate
# NCI-H522 lung = tested on: NCI-H522 lung
# SNB-75 CNS = tested on: SNB-75 CNS
# HL-60(TB) leukemia = tested on: HL-60(TB) leukemia
# SF-268 CNS = tested on: SF-268 CNS
# MOLT-4 leukemia = tested on: MOLT-4 leukemia
# 786-0 renal = tested on: 786-0 renal
# RPMI-8226 leukemia = tested on: RPMI-8226 leukemia
# HOP-92 NSCLC = tested on: HOP-92 NSCLC
# RXF 393 renal = tested on: RXF 393 renal
# OVCAR-3 ovarian = tested on: OVCAR-3 ovarian
# HCT-15 colon = tested on: HCT-15 colon
# SF-295 CNS = tested on: SF-295 CNS
# A498 renal = tested on: A498 renal
# BT-549 breast = tested on: BT-549 breast
# LOX IMVI melanoma = tested on: LOX IMVI melanoma
# SK-MEL-5 melanoma = tested on: SK-MEL-5 melanoma
# NCI-H23 lung = tested on: NCI-H23 lung
# A549 NSCLC = tested on: A549 NSCLC
# HCC-2998 colon = tested on: HCC-2998 colon
# HOP-62 NSCLC = tested on: HOP-62 NSCLC
# KM12 colon = tested on: KM12 colon
# T-47D breast = tested on: T-47D breast
# OVCAR-4 ovarian = tested on: OVCAR-4 ovarian
# IGROV1 ovarian = tested on: IGROV1 ovarian
# TK-10 renal = tested on: TK-10 renal
# U251 CNS = tested on: U251 CNS
# CAKI-1 renal = tested on: CAKI-1 renal
# HCT-116 colon = tested on: HCT-116 colon
# MDA-MB-435 = tested on: MDA-MB-435
# UACC-62 melanoma = tested on: UACC-62 melanoma
# UO-31 renal = tested on: UO-31 renal
# DU-145 prostate = tested on: DU-145 prostate
# MDA-MB-231 breast = tested on: MDA-MB-231 breast
# SW-620 colon = tested on: SW-620 colon
# SNB-19 CNS = tested on: SNB-19 CNS
# HT29 colon = tested on: HT29 colon
# SK-MEL-28 melanoma = tested on: SK-MEL-28 melanoma
# ACHN renal = tested on: ACHN renal
# UACC-257 melanoma = tested on: UACC-257 melanoma
# SR leukemia = tested on: SR leukemia
# COLO 205 colon = tested on: COLO 205 colon
# MCF7 breast = tested on: MCF7 breast
# OVCAR-5 ovarian = tested on: OVCAR-5 ovarian
# MALME-3M melanoma = tested on: MALME-3M melanoma
# NCI/ADR-RES ovarian = tested on: NCI/ADR-RES ovarian
# K-562 leukemia = tested on: K-562 leukemia
compound,measurement,setting,value
COC1=CC(c2ccc[nH]2)=N/C1=C\c1[nH]c(C)c(C(=O)CCCCC(=O)NCc2ccccc2)c1C,GI50,HS 578T breast,1.98 µM
same,TGI,HS 578T breast,4.43 µM
same,GI50,M14 melanoma,2.68 µM
same,TGI,M14 melanoma,7.36 µM
same,GI50,OVCAR-8 ovarian,5.85 µM
same,TGI,OVCAR-8 ovarian,23.3 µM
same,GI50,NCI-H460 lung,1.99 µM
same,TGI,NCI-H460 lung,5.34 µM
same,GI50,SK-OV-3 ovarian,14.8 µM
same,TGI,SK-OV-3 ovarian,31.1 µM
same,GI50,SF-539 CNS,4.66 µM
same,TGI,SF-539 CNS,15.8 µM
same,GI50,CCRF-CEM leukemia,0.673 µM
same,TGI,CCRF-CEM leukemia,6.98 µM
same,GI50,SN12C renal,3.82 µM
same,TGI,SN12C renal,18.4 µM
same,GI50,NCI-H226 lung,2.73 µM
same,TGI,NCI-H226 lung,10.9 µM
same,GI50,EKVX NSCLC,4.2 µM
same,TGI,EKVX NSCLC,18.1 µM
same,GI50,PC-3 prostate,1.57 µM
same,TGI,PC-3 prostate,3.99 µM
same,GI50,NCI-H522 lung,1.95 µM
same,TGI,NCI-H522 lung,6.09 µM
same,GI50,SNB-75 CNS,3.72 µM
same,TGI,SNB-75 CNS,15.1 µM
same,GI50,HL-60(TB) leukemia,2.2 µM
same,TGI,HL-60(TB) leukemia,7.33 µM
same,GI50,SF-268 CNS,1.82 µM
same,TGI,SF-268 CNS,6.04 µM
same,GI50,MOLT-4 leukemia,1.09 µM
same,TGI,MOLT-4 leukemia,3.09 µM
same,GI50,786-0 renal,2.4 µM
same,TGI,786-0 renal,6.69 µM
same,GI50,RPMI-8226 leukemia,2.56 µM
same,TGI,RPMI-8226 leukemia,6.52 µM
same,GI50,HOP-92 NSCLC,1.65 µM
same,TGI,HOP-92 NSCLC,4.63 µM
same,GI50,RXF 393 renal,1.9 µM
same,TGI,RXF 393 renal,4.58 µM
same,GI50,OVCAR-3 ovarian,1.43 µM
same,TGI,OVCAR-3 ovarian,2.89 µM
same,GI50,HCT-15 colon,0.845 µM
same,TGI,HCT-15 colon,2.25 µM
same,GI50,SF-295 CNS,1.87 µM
same,TGI,SF-295 CNS,7.23 µM
same,GI50,A498 renal,15.5 µM
same,TGI,A498 renal,35.3 µM
same,GI50,BT-549 breast,2.1 µM
same,TGI,BT-549 breast,7.12 µM
same,GI50,LOX IMVI melanoma,1.43 µM
same,TGI,LOX IMVI melanoma,2.77 µM
same,GI50,SK-MEL-5 melanoma,10.8 µM
same,TGI,SK-MEL-5 melanoma,23.4 µM
same,GI50,NCI-H23 lung,2.47 µM
same,TGI,NCI-H23 lung,11 µM
same,GI50,A549 NSCLC,3.56 µM
same,TGI,A549 NSCLC,16.9 µM
same,GI50,HCC-2998 colon,3.16 µM
same,TGI,HCC-2998 colon,12.2 µM
same,GI50,HOP-62 NSCLC,2.87 µM
same,TGI,HOP-62 NSCLC,10.2 µM
same,GI50,KM12 colon,1.38 µM
same,TGI,KM12 colon,3.02 µM
same,GI50,T-47D breast,2.34 µM
same,TGI,T-47D breast,7.23 µM
same,GI50,OVCAR-4 ovarian,6.31 µM
same,TGI,OVCAR-4 ovarian,23.4 µM
same,GI50,IGROV1 ovarian,3.36 µM
same,TGI,IGROV1 ovarian,14.7 µM
same,GI50,TK-10 renal,2.15 µM
same,TGI,TK-10 renal,4.63 µM
same,GI50,U251 CNS,1.43 µM
same,TGI,U251 CNS,2.95 µM
same,GI50,CAKI-1 renal,2.54 µM
same,TGI,CAKI-1 renal,13.4 µM
same,GI50,HCT-116 colon,1.51 µM
same,TGI,HCT-116 colon,2.83 µM
same,GI50,MDA-MB-435,1.61 µM
same,TGI,MDA-MB-435,3.72 µM
same,GI50,UACC-62 melanoma,8.85 µM
same,TGI,UACC-62 melanoma,22.8 µM
same,GI50,UO-31 renal,2.26 µM
same,TGI,UO-31 renal,8.81 µM
same,GI50,DU-145 prostate,1.64 µM
same,TGI,DU-145 prostate,3.53 µM
same,GI50,MDA-MB-231 breast,1.61 µM
same,TGI,MDA-MB-231 breast,7.56 µM
same,GI50,SW-620 colon,1.06 µM
same,TGI,SW-620 colon,2.58 µM
same,GI50,SNB-19 CNS,8.76 µM
same,TGI,SNB-19 CNS,24 µM
same,GI50,HT29 colon,0.723 µM
same,TGI,HT29 colon,5.67 µM
same,GI50,SK-MEL-28 melanoma,2.07 µM
same,TGI,SK-MEL-28 melanoma,4.64 µM
same,GI50,ACHN renal,2.49 µM
same,TGI,ACHN renal,8.11 µM
same,GI50,UACC-257 melanoma,18.6 µM
same,TGI,UACC-257 melanoma,38.5 µM
same,GI50,SR leukemia,1.14 µM
same,TGI,SR leukemia,3.3 µM
same,GI50,COLO 205 colon,2.37 µM
same,GI50,MCF7 breast,1.6 µM
same,TGI,MCF7 breast,3.44 µM
same,GI50,OVCAR-5 ovarian,7.18 µM
same,TGI,OVCAR-5 ovarian,21.3 µM
same,GI50,MALME-3M melanoma,2.56 µM
same,TGI,MALME-3M melanoma,5.57 µM
same,GI50,NCI/ADR-RES ovarian,2.17 µM
same,TGI,NCI/ADR-RES ovarian,5.36 µM
same,GI50,K-562 leukemia,1.73 µM
same,TGI,K-562 leukemia,4.72 µM
